We go through 42 molecules from patent US8822430B2 (Gilead Sciences, Inc., priority 2009, dated 2014).

The subject of this assay is HCV 1b RLuc cells (dicistronic genotype 1b Con1 replicon). Briefly: Renilla luciferase (RLuc)-based HCV replicon reporter assay. It is filed as cell-based, HCV genotype 1b. The note with it: Hepatitis C virus, 72 h, HCV 1b RLuc replicon, 72 hours; read-out: Activity (antiviral potency [EC50]). In short, it runs like this: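 EC50 values were calculated by non-linear regression of Renilla luciferase signal from lysed cells after 72 h of compound exposure. Cells harboured a genotype 1b Con1 dicistronic replicon encoding RLuc. Compounds were serially diluted in DMSO from 10 mM stocks into culture media.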
(A replicon is a self-replicating genome or part of one, used to study replication in cells.)
A word on the EC50: it is the concentration at which the effect is half-maximal. With `CNC(=O)N1CCN(C(=O)[C@@H](NC(=O)OC)C(C)C)[C@H](c2ncc(-c3ccc(C#Cc4ccc(-c5cnc([C@@H]6CCCN6C(=O)[C@@H](NC(=O)OC)C(C)C)[nH]5)cc4)cc3)[nH]2)C1`, the EC50 worked out at 1.05 nM.

For `COC(=O)N[C@H](C(=O)N1CCC[C@H]1c1ncc(-c2ccc(-c3ccc(-c4cnc(CN5CCC[C@H](N)C5=O)[nH]4)cc3)cc2)[nH]1)C(C)C`, the EC50 is 4.8 nM.

In the case of `COC(=O)NC(C(=O)N1CCC[C@H]1c1ncc(-c2ccc(C#Cc3ccc(-c4cnc([C@@H]5CCCN5C(=O)[C@@H](NC(=O)OC)C(C)C)[nH]4)cc3)cc2)[nH]1)C(F)(F)F` (stereo partly drawn), the EC50 is more than 44.4 nM.

As to `COC(=O)NC(C(=O)N1CCC[C@H]1c1ncc(-c2cc3c(C)c4sc(-c5cnc([C@@H]6CCCN6C(=O)C(NC(=O)OC)c6ccccc6)[nH]5)cc4c(C)c3s2)[nH]1)c1ccccc1` (stereo partly drawn), the EC50 was 0.0214 nM.

In the case of `COC(=O)N[C@H](C(=O)N1C[C@@H](C#N)C[C@H]1c1ncc(-c2ccc(C#Cc3ccc(-c4cnc([C@@H]5CC(F)(F)CN5C(=O)[C@@H](NC(=O)OC)C(C)C)[nH]4)cc3)cc2)[nH]1)C(C)C`, the concentration for a half-maximal effect (EC50) is 0.018 nM.

Take `COC(=O)N[C@H](C(=O)N1CCC[C@H]1c1ncc(C#CC#Cc2cnc([C@@H]3CCCN3C(=O)[C@@H](NC(=O)OC)C(C)C)[nH]2)[nH]1)C(C)C`: the concentration giving a half-maximal response (EC50) came to 1.33 nM.

Consider `COC(=O)N[C@H](C(=O)N1CCC[C@H]1c1ncc(-c2ccc(C#Cc3ccc(-c4cnc([C@@H]5CC(F)(F)CN5C(=O)[C@@H](NC(=O)OC)C(C)C)[nH]4)cc3)cc2)[nH]1)C(C)C`, for which the 50% effective concentration (EC50) was determined as 0.0091 nM.

Take `COC(=O)N[C@H](C(=O)N1CCC[C@H]1c1ncc(-c2ccc(-c3cc4ccc(-c5cnc([C@@H]6CCCN6C(=O)[C@@H](NC(=O)OC)C(C)C)[nH]5)cc4s3)cc2)[nH]1)C(C)C`: the 50% effective concentration (EC50) was found to be 0.0093 nM.

Consider `COC(=O)N[C@H](C(=O)N1CCC[C@H]1c1ncc(-c2ccc3cc(-c4ccc(-c5cnc([C@@H]6C[C@@H](Cc7ccccc7)CN6C(=O)[C@@H](NC(=O)OC)C(C)C)[nH]5)cc4)ccc3c2)[nH]1)C(C)C`, for which the EC50 worked out at 0.014 nM.

On to `COC(=O)N[C@H](C(=O)N1CCC[C@H]1c1nc(-c2ccc3c(c2)C(F)(F)c2cc(-c4cnc([C@@H]5CC6(CC6)CN5C(=O)[C@@H](NC(=O)OC)C(C)C)[nH]4)ccc2-3)c[nH]1)C(C)C`, for which the EC50 was found to be 0.0125 nM.

For the molecule `COC(=O)N[C@H](C(=O)N1CCC[C@H]1c1ncc(-c2ccc3c(c2)COc2cc(-c4cnc([C@@H]5CCCN5C(=O)[C@@H](NC(=O)OC)C(C)C)[nH]4)ccc2-3)[nH]1)C(C)C`, the concentration for a half-maximal effect (EC50) stood at 0.0131 nM.

Consider `COC(=O)N[C@H](C(=O)N1CCC[C@H]1c1nc2ccc(-c3ccc4nc([C@@H]5CCCN5C(=O)[C@@H](NC(=O)OC)C(C)C)[nH]c4c3)cc2[nH]1)C(C)C`, for which the EC50 was determined as 35.5 nM.

As to `COC(=O)N[C@@H](CCOCC(F)(F)F)C(=O)N1CCC[C@H]1c1ncc(-c2ccc(-c3ccc(-c4cnc([C@@H]5CCCN5C(=O)[C@H](CCOCC(F)(F)F)NC(=O)OC)[nH]4)cc3)cc2)[nH]1`, the EC50 came to 0.0244 nM.

As for `COC(=O)N[C@H](C(=O)N1CC2(CC2)C[C@H]1c1ncc(-c2ccc3c(c2)oc2cc(-c4ccc5nc([C@@H]6[C@H]7CC[C@H](C7)N6C(=O)[C@@H](NC(=O)OC)C(C)C)[nH]c5c4)ccc23)[nH]1)C(C)C`, the 50% effective concentration (EC50) worked out at 0.0041 nM.

With `COC(=O)N[C@H](C(=O)N1[C@@H]2CC[C@@H](C2)[C@H]1c1ncc(-c2ccc3cc(-c4ccc(-c5cnc([C@@H]6CC7(CC7)CN6C(=O)[C@@H](NC(=O)OC)C6CC6)[nH]5)cc4)ccc3c2)[nH]1)C(C)C`, the concentration giving a half-maximal response (EC50) stood at 0.286 nM.

Regarding `COC[C@H]1C[C@@H](c2ncc(-c3ccc(-c4ccc5cc(-c6cnc([C@@H]7CC8(CC8)CN7C(=O)[C@@H](NC(=O)OC)C(C)C)[nH]6)ccc5c4)cc3)[nH]2)N(C(=O)[C@@H](NC(=O)OC)C(C)C)C1`, the EC50 amounted to 0.0073 nM.

On to `COC(=O)N[C@H](C(=O)N1CCC[C@H]1c1ncc(-c2ccc(-c3ccc(-c4ccc(-c5cnc([C@@H]6CCCN6C(=O)[C@@H](NC(=O)OC)C(C)C)[nH]5)cc4)cc3)cc2)[nH]1)C(C)C`, for which the EC50 was 0.024 nM.

Consider `COC(=O)N[C@H](C(=O)N1CCC[C@H]1c1ncc(-c2ccc3c(c2)Cc2cc(-c4cnc([C@@H]5CCCN5C(=O)[C@@H](NC(=O)OC)C(C)C)[nH]4)ccc2-3)[nH]1)C(C)C`, for which the EC50 was found to be 0.0137 nM.

`COC(=O)N[C@H](C(=O)N1CCC[C@H]1c1ncc(-c2ccc(-c3ccc4c(c3)C(F)(F)c3cc(-c5cnc([C@@H]6CC7(CC7)CN6C(=O)[C@@H](NC(=O)OC)C(C)C)[nH]5)ccc3-4)cc2)[nH]1)C(C)C`: the EC50 amounted to 0.0208 nM.

For the molecule `COC(=O)N[C@H](C(=O)N1CCC[C@H]1c1ncc(-c2ccc(C#Cc3ccc(-c4cnc([C@H]5N(C(=O)[C@@H](NC(=O)OC)C(C)C)CSC5(C)C)[nH]4)cc3)cc2)[nH]1)C(C)C`, the EC50 is 0.0424 nM.

Regarding `CNC(=O)O[C@H](C(=O)N1CCC[C@H]1c1ncc(-c2ccc(C#Cc3ccc(-c4cnc([C@@H]5CCCN5C(=O)[C@@H](NC(=O)OC)C(C)C)[nH]4)cc3)cc2)[nH]1)C(C)C`, the EC50 is 0.127 nM.

Consider `COC(=O)N[C@H](C(=O)N1CCC[C@H]1c1ncc(-c2ccc(-c3cnc([C@@H]4CCCN4C(=O)[C@@H](NC(=O)OC)C(C)C)[nH]3)cc2)[nH]1)C(C)C`, for which the EC50 stood at 1.22 nM.

Turning to `COC(=O)N[C@H](C(=O)N1CCC[C@H]1C(=O)Nc1ccc(CCc2ccc(NC(=O)[C@@H]3CCCN3C(=O)[C@@H](NC(=O)OC)C(C)C)cc2)cc1)C(C)C`, the EC50 came out at 0.264 nM.

In the case of `COC(=O)NC(C(=O)N1CCC[C@H]1c1ncc(-c2cc3sc(-c4ccc5nc([C@@H]6CCCN6C(=O)[C@@H](NC(=O)OC)C(C)C)[nH]c5c4)cc3s2)[nH]1)C(C)C` (stereo partly drawn), the half-maximal effective concentration (EC50) was 0.0229 nM.

Regarding `COC(=O)N[C@H](C(=O)N1CCC[C@H]1c1ncc(-c2ccc3cc(-c4ccc(-c5cnc([C@@H]6C[C@@H](c7ccccc7)CN6C(=O)[C@@H](NC(=O)OC)C(C)C)[nH]5)cc4)ccc3c2)[nH]1)C(C)C`, the 50% effective concentration (EC50) was found to be 0.0724 nM.

With `COC(=O)N[C@H](C(=O)N1CCC[C@H]1c1ncc(-c2ccc(-c3ccc(-c4cnc(CN5CCC[C@@H](N)C5=O)[nH]4)cc3)cc2)[nH]1)C(C)C`, the half-maximal effective concentration (EC50) turned out to be 7.55 nM.

On to `COC(=O)N[C@@H](C)C(=O)N1CCC[C@H]1c1ncc(-c2ccc3cc(-c4ccc5cc(-c6cnc([C@@H]7[C@H]8CC[C@H](C8)N7C(=O)[C@H](C)NC(=O)OC)[nH]6)ccc5c4)ccc3c2)[nH]1`, for which the EC50 was 2.61 nM.

As for `COC(=O)N[C@H](C(=O)N1CCC[C@H]1c1ncc(-c2ccc(-c3ccc(-c4cnc([C@@H]5CN(C(=O)OC(C)(C)C)CN5C(=O)[C@@H](NC(=O)OC)C(C)C)[nH]4)cc3)cc2)[nH]1)C(C)C`, the EC50 was 0.005 nM.

Regarding `COC(=O)NC(C(=O)N1CCC[C@H]1c1ncc(-c2cc3sc(C#Cc4cnc([C@@H]5CCCN5C(=O)[C@@H](NC(=O)OC)C(C)C)[nH]4)cc3s2)[nH]1)C(C)C` (stereo partly drawn), the 50% effective concentration (EC50) stood at 0.0503 nM.

For the molecule `COC(=O)N[C@H](C(=O)N1CCC[C@H]1c1ncc(-c2ccc3cc(-c4ccc(-c5ccc6nc([C@@H]7[C@H]8CC[C@H](C8)N7C(=O)[C@@H](NC(=O)OC)C(C)C)[nH]c6c5)cc4)ccc3c2)[nH]1)C(C)C`, the EC50 was 0.077 nM.

Turning to `COC(=O)N[C@H](C(=O)N1CCC[C@H]1c1ncc(-c2ccc3c(c2)CN(C)C(=O)c2cc(-c4cnc([C@@H]5CCCN5C(=O)[C@@H](NC(=O)OC)C(C)C)[nH]4)ccc2-3)[nH]1)C(C)C`, the EC50 turned out to be 2.14 nM.

In the case of `COC(=O)N[C@H](C(=O)N1CCC[C@H]1c1ncc(-c2ccc3cc(-c4ccc(-c5cnc([C@@H]6CCCN6C(=O)[C@@H](Cc6ccccc6)NC(=O)OC)[nH]5)cc4)ccc3c2)[nH]1)C(C)C`, the EC50 was 0.858 nM.

In the case of `COC(=O)N[C@H](C(=O)N1CCC[C@H]1c1ncc(-c2ccc(-c3ccc4cc(-c5cnc([C@@H]6CCCN6C(=O)[C@@H](NC(=O)OC)C6CCOCC6)[nH]5)ccc4c3)cc2)[nH]1)C1CCOCC1`, the EC50 amounted to 0.0686 nM.

Take `COC(=O)N[C@H](C(=O)N1CCC[C@H]1C(=O)Nc1cccc(-c2ccc(-c3cnc([C@@H]4CCCN4C(=O)[C@@H](NC(=O)OC)C(C)C)[nH]3)cc2)c1)C(C)C`: the EC50 is 0.118 nM.

Consider `COC(=O)N[C@H](C(=O)N1CCC[C@H]1c1ncc(-c2ccc3cc(-c4ccc5nc([C@@H]6CCN6C(=O)[C@H](NC(=O)OC)c6ccccc6)[nH]c5c4)ccc3c2)[nH]1)C(C)C`, for which the EC50 stood at 0.07 nM.

Regarding `COC(=O)N[C@H](C(=O)N1CC2(C[C@H]1c1ncc(-c3ccc(-c4ccc(-c5cnc([C@@H]6CCCN6C(=O)[C@@H](NC(=O)OC)C6CCOCC6)[nH]5)cc4)cc3)[nH]1)OCCO2)C(C)C`, the 50% effective concentration (EC50) came to 0.546 nM.

In the case of `COC(=O)N[C@H](C(=O)N1CC2(CC2)C[C@H]1c1ncc(-c2ccc(-c3ccc(-c4ccc5nc([C@@H]6[C@H]7CC[C@H](C7)N6C(=O)[C@@H](NC(=O)OC)C(C)C)[nH]c5c4)cc3)cc2)[nH]1)C(C)C`, the 50% effective concentration (EC50) amounted to 0.0058 nM.

As for `COC(=O)N[C@H](C(=O)N1CCC[C@H]1c1ncc(-c2ccc(C#CC#Cc3ccc(-c4cnc([C@@H]5CCCN5C(=O)[C@@H](NC(=O)OC)C(C)C)[nH]4)cc3)cc2)[nH]1)C(C)C`, the concentration giving a half-maximal response (EC50) was determined as 0.384 nM.

For `CC[C@H](NC(=O)OC)C(=O)N1[C@@H]2CC[C@@H](C2)[C@H]1c1ncc(-c2ccc(-c3ccc4cc(-c5cnc([C@@H]6CC7(CC7)CN6C(=O)[C@@H](NC(=O)OC)C(C)C)[nH]5)ccc4c3)cc2)[nH]1`, the half-maximal effective concentration (EC50) was 0.0086 nM.

With `COC(=O)NC(C(=O)N1CCC[C@H]1c1ncc(-c2ccc(-c3ccc4cc(-c5cnc([C@@H]6CCCN6C(=O)[C@@H](NC(=O)OC)C(C)C)[nH]5)ccc4c3)cc2)[nH]1)C1CCS(=O)(=O)CC1` (stereo partly drawn), the 50% effective concentration (EC50) was 0.135 nM.

Regarding `COC(=O)NC(C(=O)N1CC2(CC2)C[C@H]1c1ncc(-c2ccc3cc(-c4ccc(-c5cnc([C@@H]6[C@H]7CC[C@H](C7)N6C(=O)[C@@H](NC(=O)OC)C(C)C)[nH]5)cc4)ccc3c2)[nH]1)c1ccccc1` (stereo partly drawn), the EC50 amounted to 0.0145 nM.

In the case of `COC(=O)NC(C(=O)N1CCC[C@H]1c1ncc(-c2ccc3cc(-c4ccc(-c5cnc([C@@H]6CCCN6C(=O)[C@@H](NC(=O)OC)C(C)C)[nH]5)cc4)ccc3c2)[nH]1)c1ccccc1` (stereo partly drawn), the concentration giving a half-maximal response (EC50) was determined as 0.0092 nM.
